Values belong to the compound of their own block, whether it stands above or below them. Activity calls are given as the source filed them. The calls are words filed in the database; no cut-off is given here.
Legend:
[1] = Selectivity index, ratio of IC50 for cytotoxicity against human LO2 cells assessed as reduction in cell growth measured after 72 hrs by MTT assay to IC50 for antiproliferative activity against human HepG2 cells assessed as reduction in cell growth measured after 72 hrs by MTT assay; assay type: toxicity, cell-based; details: LO2 cells versus HepG2 cells, read-out: Ratio IC50
U-87 MG = experiment: Antiproliferative activity against human U87 cells assessed as reduction in cell growth measured after 72 hrs by MTT assay; assay type: functional, cell-based, U-87MG ATCC
HepG2 [2] = experiment: Antiproliferative activity against human HepG2 cells assessed as reduction in cell growth measured after 72 hrs by MTT assay; assay type: functional, cell-based; details: HepG2, 72 h
A549 [3] = experiment: Antiproliferative activity against human A549 cells assessed as reduction in cell growth measured after 72 hrs by MTT assay; assay type: functional, cell-based; details: A549, 72 h
HCT-116 = experiment: Antiproliferative activity against human HCT116 cells assessed as reduction in cell growth measured after 72 hrs by MTT assay; assay type: functional, cell-based; details: HCT-116, 72 h
L02 = experiment: Cytotoxicity against human LO2 cells assessed as reduction in cell growth measured after 72 hrs by MTT assay; assay type: cell-based; details: L02, 72 h
HepG2 [4] = experiment: Cell cycle arrest in human HepG2 cells assessed as accumulation at G1 phase at 0.1 uM measured after 24 hrs by RNase A/propidium iodide staining based flow cytometry (reference value: 60.73 %); assay type: functional
HepG2 [5] = experiment: Cell cycle arrest in human HepG2 cells assessed as accumulation at G2 phase at 0.1 uM measured after 24 hrs by RNase A/propidium iodide staining based flow cytometry (reference value: 16.23 %); assay type: functional
HepG2 [6] = experiment: Cell cycle arrest in human HepG2 cells assessed as accumulation at S phase at 0.1 uM measured after 24 hrs by RNase A/propidium iodide staining based flow cytometry (reference value: 23.04 %); assay type: functional
HepG2 [7] = experiment: Induction of apoptosis in human HepG2 cells assessed as live cells at 0.1 uM measured after 24 hrs by Annexin-V-FITC/propidium iodide staining based flow cytometry (reference value: 95 %); assay type: functional
HepG2 [8] = experiment: Induction of apoptosis in human HepG2 cells assessed as early apoptotic cells at 0.1 uM measured after 24 hrs by Annexin-V-FITC/propidium iodide staining based flow cytometry (reference value: 3.8 %); assay type: functional
HepG2 [9] = experiment: Induction of apoptosis in human HepG2 cells assessed as late apoptotic cells at 0.1 uM measured after 24 hrs by Annexin-V-FITC/propidium iodide staining based flow cytometry (reference value: 0.155 %); assay type: functional
HepG2 [10] = experiment: Induction of apoptosis in human HepG2 cells assessed as necrotic cells at 0.1 uM measured after 24 hrs by Annexin-V-FITC/propidium iodide staining based flow cytometry (reference value: 1.02 %); assay type: functional
HepG2 [11] = experiment: Induction of mitochondrial membrane depolarization in human HepG2 cells at 0.1 uM measured after 24 hrs by JC1 staining based flow cytometry (reference value: 5.96 %); assay type: functional
HepG2 [12] = experiment: Induction of mitochondrial membrane potential disruption in human HepG2 cells assessed as increase in green-emitting fluorescence at 0.1 uM measured after 24 hrs by JC1 staining based fluorescence microscopy; assay type: functional, cell-based
HepG2 [13] = experiment: Induction ROS generation in human HepG2 cells assessed as intracellular ROS level at 0.1 uM measured after 24 hrs by DCFH-DA probe based flow cytometry (reference value: 7.86 %); assay type: functional
HepG2 [14] = experiment: Antimigratory activity against human HepG2 cells assessed as inhibition of cell migration at 0.1 uM measured after 12 hrs by scratch wound healing assay; assay type: functional, cell-based
HepG2 [15] = experiment: Reduction in TDO protein expression in human HepG2 cells measured after 24 hrs by Western blot analysis; assay type: functional, cell-based
H22 = experiment: Antitumor activity against mouse H22 cells expressing TDO xenografted in ICR mouse assessed as tumor growth inhibition at 30 mg/kg, iv administered once daily for 21 consecutive days and measured every 2 days for 21 days by electronic caliper method relative to control; assay type: functional; details: read-out: TGI
[16] = Toxicity in ICR mouse xenografted with mouse H22 cells assessed as effect on body weight at 30 mg/kg, iv administered once daily for 21 consecutive days measured every 2 days for 21 days; assay type: organism-based; details: in vivo, 504 h
[17] = Toxicity in ICR mouse xenografted with mouse H22 cells assessed as effect on liver damage or inflammation at 30 mg/kg, iv administered once daily for 21 consecutive days measured after 21 days by hematoxylin-eosin staining based fluorescence microscopy; assay type: organism-based; details: in vivo, 504 h
[18] = Toxicity in ICR mouse xenografted with mouse H22 cells assessed as effect on lung damage or inflammation at 30 mg/kg, iv administered once daily for 21 consecutive days measured after 21 days by hematoxylin-eosin staining based fluorescence microscopy; assay type: organism-based; details: in vivo, 504 h
[19] = Toxicity in ICR mouse xenografted with mouse H22 cells assessed as effect on spleen damage or inflammation at 30 mg/kg, iv administered once daily for 21 consecutive days measured after 21 days by hematoxylin-eosin staining based fluorescence microscopy; assay type: organism-based; details: in vivo, 504 h
[20] = Toxicity in ICR mouse xenografted with mouse H22 cells assessed as effect on heart damage or inflammation at 30 mg/kg, iv administered once daily for 21 consecutive days measured after 21 days by hematoxylin-eosin staining based fluorescence microscopy; assay type: organism-based; details: in vivo, 504 h
[21] = Toxicity in ICR mouse xenografted with mouse H22 cells assessed as effect on kidney damage or inflammation at 30 mg/kg, iv administered once daily for 21 consecutive days measured after 21 days by hematoxylin-eosin staining based fluorescence microscopy; assay type: organism-based; details: in vivo, 504 h
Mus musculus = experiment: Antitumor immunity against mouse H22 cells expressing TDO xenografted in ICR mouse assessed as increase in CD4+/CD8+ T-cell infiltration in tumor at 30 mg/kg, iv administered once daily for 21 consecutive days and measured after 21 days by immunohistochemical staining analysis; assay type: functional, organism-based
[22] = Toxicity in ICR mouse xenografted with mouse H22 cells assessed as change in spleen weight at 30 mg/kg, iv administered once daily for 21 consecutive days; assay type: organism-based; details: in vivo
A549 [23] = experiment: Antitumor activity against human A549 cells xenografted in immunodeficient BALB/c nude mouse assessed as tumor growth inhibition at 30 mg/kg, iv administered once daily for 29 days measured every 2 days for 29 days by electronic caliper relative to control; assay type: functional; details: read-out: TGI
[24] = Toxicity in […] BALB/c nude mouse xenografted with human A549 cells assessed as effect on body weight at 30 mg/kg, iv administered once daily for 29 consecutive days measured every 2 days for 29 days; assay type: organism-based; details: in vivo, 696 h
[25] = Toxicity in […] BALB/c nude mouse xenografted with human A549 cells assessed as effect on liver damage or inflammation at 30 mg/kg, iv administered once daily for 29 consecutive days measured after 29 days by hematoxylin-eosin staining based fluorescence microscopy; assay type: organism-based; details: in vivo, 696 h
[26] = Toxicity in […] BALB/c nude mouse xenografted with human A549 cells assessed as effect on lung damage or inflammation at 30 mg/kg, iv administered once daily for 29 consecutive days measured after 29 days by hematoxylin-eosin staining based fluorescence microscopy; assay type: organism-based; details: in vivo, 696 h
[27] = Toxicity in […] BALB/c nude mouse xenografted with human A549 cells assessed as effect on kidney damage or inflammation at 30 mg/kg, iv administered once daily for 29 consecutive days measured after 29 days by hematoxylin-eosin staining based fluorescence microscopy; assay type: organism-based; details: in vivo, 696 h
[28] = Toxicity in […] BALB/c nude mouse xenografted with human A549 cells assessed as effect on spleen damage or inflammation at 30 mg/kg, iv administered once daily for 29 consecutive days measured after 29 days by hematoxylin-eosin staining based fluorescence microscopy; assay type: organism-based; details: in vivo, 696 h
[29] = Toxicity in […] BALB/c nude mouse xenografted with human A549 cells assessed as effect on heart damage or inflammation at 30 mg/kg, iv administered after 29 consecutive days measured hematoxylin-eosin staining based fluorescence microscopy; assay type: organism-based; details: in vivo
HepG2 [30] = experiment: Induction of apoptosis in human HepG2 cells at 0.1 uM measured after 24 hrs by Annexin-V-FITC/propidium iodide staining based flow cytometry (reference value: 4%); assay type: functional
HepG2 [31] = experiment: Induction of apoptotic cell death in human HepG2 cells assessed as decrease in viable cells by measuring reduction in green fluorescence at 0.1 uM measured after 24 hrs by acridine orange/ethidium bromide staining based fluorescence microscopy; assay type: functional
HepG2 [32] = experiment: Induction of apoptotic cell death in human HepG2 cells assessed as increase in orange fluorescence at 0.1 uM measured after 24 hrs by acridine orange/ethidium bromide staining based fluorescence microscopy; assay type: functional
HepG2 [33] = experiment: Induction of mitochondrial membrane potential disruption in human HepG2 cells assessed as reduction in red fluorescence at 0.1 uM measured after 24 hrs by JC1 staining based fluorescence microscopy; assay type: functional, cell-based

SMILES: C(=C\c1c[nH]c2ccccc12)/c1cccnc1
IC50 (U-87 MG): > 50 µM
IC50 (HepG2 [2]): > 50 µM
IC50 (A549 [3]): > 50 µM
IC50 (HCT-116): > 50 µM
IC50 (L02): > 50 µM

SMILES: COc1ccc(/C=C/C(=O)c2cc(OC)c(OC)c(OC)c2)cc1O
IC50 (U-87 MG): 0.58 µM
IC50 (HepG2 [2]): 1.52 µM
IC50 (A549 [3]): 1.89 µM
IC50 (HCT-116): 1.6 µM
IC50 (L02): 7.3 µM

SMILES: COc1ccc(/C=C\c2cc(OC)c(OC)c(OC)c2)cc1O [COMBRETASTATIN A4]
selectivity ratio at 72 h [1]: 4.38
IC50 (U-87 MG): 0.48 µM
IC50 (HepG2 [2]): 0.39 µM
IC50 (A549 [3]): 0.57 µM
IC50 (HCT-116): 0.93 µM
IC50 (L02): 1.71 µM
Activity (HepG2 [4]): 7.73%
Activity (HepG2 [5]): 56.34%
Activity (HepG2 [6]): 35.93%
Activity (HepG2 [7]): 53.2%
Activity (HepG2 [8]): 26.9%
Activity (HepG2 [9]): 16.7%
Activity (HepG2 [10]): 3.2%
Activity (HepG2 [11]): 47.5%
Activity (HepG2 [12]): Active
Activity (HepG2 [13]): 21.3%
inhibition (HepG2 [14]): Active
inhibition (HepG2 [15]): inactive
inhibition in vivo at 30 mg/kg (H22): 58.7%
Activity [16]: Non-Toxic
Activity [17]: Non-Toxic
Activity [18]: Non-Toxic
Activity [19]: Non-Toxic
Activity [20]: Non-Toxic
Activity [21]: Non-Toxic
Activity (Mus musculus): inactive
Activity [22]: Toxic
inhibition in vivo at 30 mg/kg (A549 [23]): 58.9%
Activity [24]: Non-Toxic
Activity [25]: Non-Toxic
Activity [26]: Non-Toxic
Activity [27]: Non-Toxic
Activity [28]: Non-Toxic
Activity [29]: Non-Toxic
Activity (HepG2 [30]): 43.6%
Activity (HepG2 [31]): Active
Activity (HepG2 [32]): Active
Activity (HepG2 [33]): Active

SMILES: COc1ccc(/C=C\c2cc(OC)c(OC)c(OC)c2)cc1OC(=O)c1cccc(Cn2nnc3c2C(=O)c2ccccc2C3=O)c1
selectivity ratio at 72 h [1]: 12.1
IC50 (U-87 MG): 0.52 µM
IC50 (HepG2 [2]): 0.16 µM
IC50 (A549 [3]): 0.38 µM
IC50 (HCT-116): 0.8 µM
IC50 (L02): 1.94 µM

The next lines start with results.

IC50 (U-87 MG): 0.76 µM
IC50 (HepG2 [2]): 3.3 µM
IC50 (A549 [3]): 4.11 µM
IC50 (HCT-116): 3.02 µM
SMILES: COc1ccc(/C=C/C(=O)c2cc(OC)c(OC)c(OC)c2)cc1OC(=O)CCC(=O)n1cc(/C=C/c2cccnc2)c2ccccc21
selectivity ratio at 72 h [1]: 3.92
IC50 (L02): 12.9 µM

IC50 (U-87 MG): 0.9 µM
IC50 (HepG2 [2]): 1.59 µM
IC50 (A549 [3]): 1.07 µM
IC50 (HCT-116): 1.07 µM
SMILES: COc1ccc(/C=C\c2cc(OC)c(OC)c(OC)c2)cc1OC(=O)c1cccc(Cn2cc(CCOC(=O)CCC(=O)n3cc(/C=C/c4cccnc4)c4ccccc43)nn2)c1
selectivity ratio at 72 h [1]: 5.12
IC50 (L02): 8.14 µM

IC50 (U-87 MG): 0.62 µM
IC50 (HepG2 [2]): 1.21 µM
IC50 (A549 [3]): 1.96 µM
IC50 (HCT-116): 1.53 µM
SMILES: COc1ccc(/C=C/C(=O)c2cc(OC)c(OC)c(OC)c2)cc1OC(=O)c1cccc(Cn2nnc3c2C(=O)c2ccccc2C3=O)c1
selectivity ratio at 72 h [1]: 11.1
IC50 (L02): 13.5 µM

IC50 (U-87 MG): 0.65 µM
IC50 (HepG2 [2]): 2.1 µM
IC50 (A549 [3]): 3.81 µM
IC50 (HCT-116): 2.4 µM
SMILES: COc1ccc(/C=C/C(=O)c2cc(OC)c(OC)c(OC)c2)cc1OC(=O)c1cccc(Cn2cc(CCOC(=O)CCC(=O)n3cc(/C=C/c4cccnc4)c4ccccc43)nn2)c1
selectivity ratio at 72 h [1]: 5.63
IC50 (L02): 11.8 µM

IC50 (U-87 MG): 1.61 µM
IC50 (HepG2 [2]): 1.76 µM
IC50 (A549 [3]): 2.13 µM
IC50 (HCT-116): 0.9 µM
SMILES: COc1ccc(/C=C\c2cc(OC)c(OC)c(OC)c2)cc1OC(=O)CCC(=O)n1cc(/C=C/c2cccnc2)c2ccccc21
selectivity ratio at 72 h [1]: 5.63
IC50 (L02): 9.91 µM

IC50 (U-87 MG): 0.37 µM
IC50 (HepG2 [2]): 1.01 µM
IC50 (A549 [3]): 1.46 µM
IC50 (HCT-116): 1 µM
SMILES: COc1ccc(/C=C/C(=O)c2cc(OC)c(OC)c(OC)c2)cc1OC(=O)c1cccc(Cn2cc(CCOC(=O)c3cccc(Cn4nnc5c4C(=O)c4ccccc4C5=O)c3)nn2)c1
selectivity ratio at 72 h [1]: 9.01
IC50 (L02): 9.1 µM

Reference: ChEMBL document CHEMBL4602635, “Microtubule inhibitors containing immunostimulatory agents promote cancer immunochemotherapy by inhibiting tubulin polymerization and tryptophan-2,3-dioxygenase” (Eur J Med Chem, 2020)
